Data published in PubChem BioAssay (NCI).
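Five compound concentrations were applied to cells in 96-well plates for 48 hours; endpoints were derived by simple linear interpolation of the resulting dose-response curve. Here, GI50 denotes the concentration required for 50% inhibition of growth. At the TGI there is no net growth.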

Columns and labels:
Test in all cases: DTP human tumour cell line panel, 48 h
786-0 renal = system: 786-0 renal
A498 renal = system: A498 renal
A549 NSCLC = system: A549 NSCLC
ACHN renal = system: ACHN renal
BT-549 breast = system: BT-549 breast
CAKI-1 renal = system: CAKI-1 renal
CCRF-CEM leukemia = system: CCRF-CEM leukemia
COLO 205 colon = system: COLO 205 colon
DU-145 prostate = system: DU-145 prostate
EKVX NSCLC = system: EKVX NSCLC
HCC-2998 colon = system: HCC-2998 colon
HCT-116 colon = system: HCT-116 colon
HCT-15 colon = system: HCT-15 colon
HL-60(TB) leukemia = system: HL-60(TB) leukemia
HOP-62 NSCLC = system: HOP-62 NSCLC
HOP-92 NSCLC = system: HOP-92 NSCLC
HS 578T breast = system: HS 578T breast
HT29 colon = system: HT29 colon
IGROV1 ovarian = system: IGROV1 ovarian
K-562 leukemia = system: K-562 leukemia
KM12 colon = system: KM12 colon
LOX IMVI melanoma = system: LOX IMVI melanoma
M14 melanoma = system: M14 melanoma
MALME-3M melanoma = system: MALME-3M melanoma
MCF7 breast = system: MCF7 breast
MDA-MB-231 breast = system: MDA-MB-231 breast
MDA-MB-435 = system: MDA-MB-435
MDA-MB-468 breast = system: MDA-MB-468 breast
MOLT-4 leukemia = system: MOLT-4 leukemia
NCI-H226 lung = system: NCI-H226 lung
NCI-H23 lung = system: NCI-H23 lung
NCI-H460 lung = system: NCI-H460 lung
NCI-H522 lung = system: NCI-H522 lung
OVCAR-3 ovarian = system: OVCAR-3 ovarian
OVCAR-4 ovarian = system: OVCAR-4 ovarian
OVCAR-5 ovarian = system: OVCAR-5 ovarian
OVCAR-8 ovarian = system: OVCAR-8 ovarian
PC-3 prostate = system: PC-3 prostate
RPMI-8226 leukemia = system: RPMI-8226 leukemia
RXF 393 renal = system: RXF 393 renal
SF-268 CNS = system: SF-268 CNS
SF-295 CNS = system: SF-295 CNS
SF-539 CNS = system: SF-539 CNS
SK-MEL-2 melanoma = system: SK-MEL-2 melanoma
SK-MEL-28 melanoma = system: SK-MEL-28 melanoma
SK-MEL-5 melanoma = system: SK-MEL-5 melanoma
SK-OV-3 ovarian = system: SK-OV-3 ovarian
SN12C renal = system: SN12C renal
SNB-19 CNS = system: SNB-19 CNS
SNB-75 CNS = system: SNB-75 CNS
SR leukemia = system: SR leukemia
SW-620 colon = system: SW-620 colon
T-47D breast = system: T-47D breast
TK-10 renal = system: TK-10 renal
U251 CNS = system: U251 CNS
UACC-257 melanoma = system: UACC-257 melanoma
UACC-62 melanoma = system: UACC-62 melanoma
UO-31 renal = system: UO-31 renal

Compound: CCCCOc1ccc(NC(=O)c2sc3nc(C)ccc3c2N)cc1
- GI50 (786-0 renal): 1860 nM
- TGI (786-0 renal): 4.21 µM
- GI50 (A498 renal): 14.9 µM
- TGI (A498 renal): 28.5 µM
- GI50 (A549 NSCLC): 3.22 µM
- TGI (A549 NSCLC): 9.73 µM
- GI50 (ACHN renal): 2720 nM
- TGI (ACHN renal): 12.7 µM
- GI50 (BT-549 breast): 2560 nM
- TGI (BT-549 breast): 10.2 µM
- GI50 (CAKI-1 renal): 3.47 µM
- TGI (CAKI-1 renal): 16.7 µM
- GI50 (CCRF-CEM leukemia): 54 µM
- TGI (CCRF-CEM leukemia): > 100 µM
- GI50 (COLO 205 colon): 19.3 µM
- TGI (COLO 205 colon): 54.4 µM
- GI50 (DU-145 prostate): 5.29 µM
- TGI (DU-145 prostate): 36.1 µM
- GI50 (EKVX NSCLC): 2170 nM
- TGI (EKVX NSCLC): 14.7 µM
- GI50 (HCC-2998 colon): 4.73 µM
- TGI (HCC-2998 colon): 20.6 µM
- GI50 (HCT-116 colon): 2280 nM
- TGI (HCT-116 colon): 6.04 µM
- GI50 (HCT-15 colon): 3.87 µM
- TGI (HCT-15 colon): 17.7 µM
- GI50 (HL-60(TB) leukemia): 49.9 µM
- TGI (HL-60(TB) leukemia): > 100 µM
- GI50 (HOP-62 NSCLC): 10.6 µM
- TGI (HOP-62 NSCLC): 28 µM
- GI50 (HOP-92 NSCLC): 5.71 µM
- TGI (HOP-92 NSCLC): 22.8 µM
- GI50 (HS 578T breast): 5.97 µM
- TGI (HS 578T breast): 38.7 µM
- GI50 (HT29 colon): 6.83 µM
- TGI (HT29 colon): 26.3 µM
- GI50 (IGROV1 ovarian): 4.1 µM
- TGI (IGROV1 ovarian): 17.4 µM
- GI50 (K-562 leukemia): 2850 nM
- TGI (K-562 leukemia): > 100 µM
- GI50 (KM12 colon): 3.96 µM
- TGI (KM12 colon): 18.5 µM
- GI50 (LOX IMVI melanoma): 2360 nM
- TGI (LOX IMVI melanoma): 6.68 µM
- GI50 (M14 melanoma): 12.6 µM
- TGI (M14 melanoma): 35.2 µM
- GI50 (MALME-3M melanoma): 5.31 µM
- TGI (MALME-3M melanoma): 19.4 µM
- GI50 (MCF7 breast): 3.07 µM
- TGI (MCF7 breast): 16.4 µM
- GI50 (MDA-MB-231 breast): 2930 nM
- TGI (MDA-MB-231 breast): 10.6 µM
- GI50 (MDA-MB-435): 4.96 µM
- TGI (MDA-MB-435): 22.1 µM
- GI50 (MDA-MB-468 breast): 1230 nM
- TGI (MDA-MB-468 breast): 3.29 µM
- GI50 (MOLT-4 leukemia): 7.46 µM
- TGI (MOLT-4 leukemia): > 100 µM
- GI50 (NCI-H226 lung): 2890 nM
- TGI (NCI-H226 lung): 18.7 µM
- GI50 (NCI-H23 lung): 1500 nM
- TGI (NCI-H23 lung): 3.56 µM
- GI50 (NCI-H460 lung): 3.23 µM
- TGI (NCI-H460 lung): 10.9 µM
- GI50 (NCI-H522 lung): 2880 nM
- TGI (NCI-H522 lung): 15.2 µM
- GI50 (OVCAR-3 ovarian): 2800 nM
- TGI (OVCAR-3 ovarian): 8.65 µM
- GI50 (OVCAR-4 ovarian): 1490 nM
- TGI (OVCAR-4 ovarian): 5.97 µM
- GI50 (OVCAR-5 ovarian): 4.61 µM
- TGI (OVCAR-5 ovarian): 28.8 µM
- GI50 (OVCAR-8 ovarian): 2610 nM
- TGI (OVCAR-8 ovarian): 6.67 µM
- GI50 (PC-3 prostate): 7.74 µM
- TGI (PC-3 prostate): > 100 µM
- GI50 (RPMI-8226 leukemia): 8.14 µM
- TGI (RPMI-8226 leukemia): > 100 µM
- GI50 (RXF 393 renal): 2980 nM
- TGI (RXF 393 renal): 12.9 µM
- GI50 (SF-268 CNS): 6.39 µM
- TGI (SF-268 CNS): 29.9 µM
- GI50 (SF-295 CNS): 2590 nM
- TGI (SF-295 CNS): 10.3 µM
- GI50 (SF-539 CNS): 1890 nM
- TGI (SF-539 CNS): 3.77 µM
- GI50 (SK-MEL-2 melanoma): 8.95 µM
- TGI (SK-MEL-2 melanoma): 31.4 µM
- GI50 (SK-MEL-28 melanoma): 12.2 µM
- TGI (SK-MEL-28 melanoma): 29.8 µM
- GI50 (SK-MEL-5 melanoma): 2000 nM
- TGI (SK-MEL-5 melanoma): 10.2 µM
- GI50 (SK-OV-3 ovarian): 6.36 µM
- TGI (SK-OV-3 ovarian): 20 µM
- GI50 (SN12C renal): 4.09 µM
- TGI (SN12C renal): 22.8 µM
- GI50 (SNB-19 CNS): 3.47 µM
- TGI (SNB-19 CNS): 13.8 µM
- GI50 (SNB-75 CNS): 2390 nM
- TGI (SNB-75 CNS): 9.02 µM
- GI50 (SR leukemia): 3.3 µM
- TGI (SR leukemia): > 100 µM
- GI50 (SW-620 colon): 11.4 µM
- TGI (SW-620 colon): 31 µM
- GI50 (T-47D breast): 2820 nM
- TGI (T-47D breast): 25.7 µM
- GI50 (TK-10 renal): 5.57 µM
- TGI (TK-10 renal): 20.4 µM
- GI50 (U251 CNS): 3.41 µM
- TGI (U251 CNS): 11.1 µM
- GI50 (UACC-257 melanoma): 10 µM
- TGI (UACC-257 melanoma): 44.6 µM
- GI50 (UACC-62 melanoma): 6.89 µM
- TGI (UACC-62 melanoma): 22.9 µM
- GI50 (UO-31 renal): 2320 nM
- TGI (UO-31 renal): 11.2 µM
